Results: ChEMBL document CHEMBL5052856, “Inhibitors of apol1 and methods of using same” (2021)

Assays:
Apolipoprotein L1 = Apolipoprotein L1 (Homo sapiens, UniProt O14791); assay: Inhibition of APOL1 G1 variant in human HEK293-T-REx cells measured by Thallium assay; format: cell-based
[1] = test system: Trypanosoma brucei brucei; assay: Antitrypanosomal activity against Trypanosoma brucei brucei assessed as trypanosome lysis using recombinant APOL1 protein G1 variant and measured by Alamar blue based fluoresence assay; format: functional, organism-based

CC(O)(CO)CNC(=O)[C@H]1C[C@H](c2c(-c3ccc(F)cc3)[nH]c3c(F)cc(F)cc32)C1 (stereo partly drawn)
IC50 (Apolipoprotein L1): > 1000 nM
IC50 [1]: > 1000 nM

NC(=O)CNCC1CC(c2c(-c3ccc(F)cc3)[nH]c3c(F)cc(F)cc23)C1 (stereo not drawn)
IC50 (Apolipoprotein L1): < 250 nM
IC50 [1]: < 250 nM

O=C(NC[C@@H](O)CO)[C@H]1C[C@H](c2c(-c3ccc(F)cc3)[nH]c3c(F)cc(F)cc32)C1
IC50 (Apolipoprotein L1): > 1000 nM
IC50 [1]: > 1000 nM

O=C([C@H]1C[C@H](c2c(-c3ccc(F)cc3)[nH]c3c(F)cc(F)cc32)C1)N1CCOC[C@H]1CO
IC50 (Apolipoprotein L1): > 1000 nM
IC50 [1]: 250 nM

O=C(NC[C@H](O)CO)[C@H]1C[C@H](c2c(-c3ccc(F)cc3)[nH]c3c(F)cc(F)cc32)C1
IC50 (Apolipoprotein L1): > 1000 nM
IC50 [1]: 250 nM

COC[C@@H]1CCN1C(=O)[C@H]1C[C@H](c2c(-c3ccc(F)cc3)[nH]c3c(F)cc(F)cc32)C1
IC50 (Apolipoprotein L1): > 1000 nM
IC50 [1]: < 250 nM

O=C(NC1CNC[C@@H]1O)[C@H]1C[C@H](c2c(-c3ccc(F)cc3)[nH]c3c(F)cc(F)cc32)C1 (stereo partly drawn)
IC50 (Apolipoprotein L1): > 1000 nM
IC50 [1]: 250 nM

CC1(CO)CCN1C(=O)[C@H]1C[C@H](c2c(-c3ccc(F)cc3)[nH]c3c(F)cc(F)cc32)C1 (stereo partly drawn)
IC50 (Apolipoprotein L1): 0.25 nM
IC50 [1]: < 250 nM

C[C@]1(NC(=O)[C@H]2C[C@H](c3c(-c4ccc(F)cc4)[nH]c4c(F)cc(F)cc43)C2)C[C@@H](O)C1
IC50 (Apolipoprotein L1): 0.25 nM
IC50 [1]: 250 nM

NC(=O)CC1CC(c2c(-c3ccc(F)cc3)[nH]c3c(F)cc(F)cc23)C1 (stereo not drawn)
IC50 (Apolipoprotein L1): < 250 nM
IC50 [1]: < 250 nM

CC(C)(O)C(O)CNC(=O)[C@H]1C[C@H](c2c(-c3ccc(F)cc3)[nH]c3c(F)cc(F)cc32)C1 (stereo partly drawn)
IC50 (Apolipoprotein L1): > 1000 nM
IC50 [1]: 250 nM

NC(=O)CNC[C@H]1C[C@H](c2c(-c3ccc(F)cc3)[nH]c3c(F)cc(F)cc32)C1
IC50 (Apolipoprotein L1): < 250 nM
IC50 [1]: < 250 nM

NC(=O)[C@@H](CO)NC(=O)[C@H]1C[C@H](c2c(-c3ccc(F)cc3)[nH]c3c(F)cc(F)cc32)C1
IC50 (Apolipoprotein L1): < 250 nM
IC50 [1]: < 250 nM

O=C([C@H]1C[C@H](c2c(-c3ccc(F)cc3)[nH]c3c(F)cc(F)cc32)C1)N1CC(CO)C1
IC50 (Apolipoprotein L1): > 1000 nM
IC50 [1]: < 250 nM

O=C1CN(C(=O)[C@H]2C[C@H](c3c(-c4ccc(F)cc4)[nH]c4c(F)cc(F)cc43)C2)CCN1
IC50 (Apolipoprotein L1): > 1000 nM
IC50 [1]: > 1000 nM

NC(=O)CNC[C@H]1C[C@@H](c2c(-c3ccc(F)cc3)[nH]c3c(F)cc(F)cc32)C1
IC50 (Apolipoprotein L1): < 250 nM
IC50 [1]: < 250 nM

O=C([C@H]1C[C@H](c2c(-c3ccc(F)cc3)[nH]c3c(F)cc(F)cc32)C1)N1C[C@@H](O)[C@H](O)C1
IC50 (Apolipoprotein L1): > 1000 nM
IC50 [1]: 250 nM

NC(=O)C1CC(c2c(-c3ccc(F)cc3)[nH]c3c(F)cc(F)cc23)C1 (stereo not drawn)
IC50 (Apolipoprotein L1): 0.25 nM
IC50 [1]: 250 nM

O=C([C@H]1C[C@H](c2c(-c3ccc(F)cc3)[nH]c3c(F)cc(F)cc32)C1)N1CCOC[C@@H]1CO
IC50 (Apolipoprotein L1): 0.25 nM
IC50 [1]: < 250 nM

CS(=O)(=O)NC(=O)[C@H]1C[C@H](c2c(-c3ccc(F)cc3)[nH]c3c(F)cc(F)cc32)C1
IC50 (Apolipoprotein L1): > 1000 nM
IC50 [1]: > 1000 nM

O=C([C@H]1C[C@H](c2c(-c3ccc(F)cc3)[nH]c3c(F)cc(F)cc32)C1)N1CCC[C@@H](O)C1 (mixture of isomers)
IC50 (Apolipoprotein L1): 0.25 nM
IC50 [1]: < 250 nM

O=C([C@H]1C[C@H](c2c(-c3ccc(F)cc3)[nH]c3c(F)cc(F)cc32)C1)N1CCC[C@H](O)C1 (mixture of isomers)
IC50 (Apolipoprotein L1): > 1000 nM
IC50 [1]: 250 nM

C[C@H](CO)N(C)C(=O)[C@H]1C[C@H](c2c(-c3ccc(F)cc3)[nH]c3c(F)cc(F)cc32)C1 (mixture of isomers)
IC50 (Apolipoprotein L1): 0.25 nM
IC50 [1]: < 250 nM

O=C(OC1CN(C(=O)C2CC(c3c(-c4ccc(F)cc4)[nH]c4c(F)cc(F)cc34)C2)C1)C1CCOCC1 (trans isomer)
IC50 (Apolipoprotein L1): 0.25 nM
IC50 [1]: < 250 nM
